pIC50: −log10 of the molar value. Read-outs that look alike come from different tables or passages of the source.
How the values were obtained:
[1] = system: 3D7-strain P. falciparum asexual parasites; experiment: P. falciparum asexual growth inhibition assay (Pf GIA); assay type: cell-based, Plasmodium falciparum; conditions: dose response confirmation; read-out: Pf asexual growth inhibition assays IC50
How it was run: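 3D7 parasites at 0.25% parasitemia, 2% hematocrit were exposed to compounds in dose response for 72 h at 37°C under 5% CO2, 5% O2. Viability read as parasite LDH activity (nitro blue tetrazolium, A650) after freeze-thaw; inhibition scaled to chloroquine (50 μM) and DMSO controls, mean of three biological replicates.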

[2] = system: P. berghei ookinete development; conditions: for % inhibition, Replicate A / % inhibition, Replicate B: primary screen at 1 μM
[3] = system: HepG2 cells; experiment: HepG2 cytotoxicity assay; conditions: for Pb ODA (this manuscript) HepG2 cytoxicity: HepG2 cytotoxicity listed with the Pb ODA data set (this manuscript); for pIC50: read-out: HepG2 cytotoxicity assay IC50, dose response confirmation
How it was run: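 Here viability after a 48 h compound incubation (37°C, humidified 5% CO2) is measured by fluorescence and expressed as percent inhibition, with doxorubicin at 50 μM and DMSO as the bounding controls.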

[4] = read-out: Pb ODA (this manuscript) IC50, P. berghei ookinete development assay, this manuscript
[5] = read-out: Pb Ookinete development assay IC50, dose response confirmation
[6] = read-out: Pb ODA IC50, this manuscript
[7] = unified HepG2 value across the three screens
[8] = HepG2 values of the three screens unified

| SMILES | pIC50 [1] | Is compound selective in assay? Pb ODA active? [2] | % inhibition, Replicate A [2] | % inhibition, Replicate B [2] | pIC50 [2, 4] | pIC50 [2, 5] | Pb ODA (this manuscript) HepG2 cytoxicity [3] | pIC50 [3] | Is compound selective in assay? Pb ODA active? ([2]; 1: YES, 0: NO) | pIC50 [2, 6] | Unified cytotox [3, 7] | HepG2 cytoxicity (Pb ODA, this manuscript) [3] | Unified cytotox [3, 8] |
| --- | --- | --- | --- | --- | --- | --- | --- | --- | --- | --- | --- | --- | --- |
| Cc1cccc2nc(-c3ccc(-c4ccc(CN5CCOCC5)cc4)cc3)[nH]c12.O=C(O)C(F)(F)F [TCMDC-133825] | 5.65 | 1 (key: 1: YES; 0: NO) | 75.48% | 125.42% | 6.20 | 6.20 | 27.54 µM | 4.56 | – | – | – | – | – |
| Cc1cccc2nc(-c3ccc(-c4ccc(CN5CCCC(O)C5)cc4)cc3)[nH]c12.O=C(O)C(F)(F)F (stereo not drawn) [TCMDC-133826] | 5.83 | 0 (key: 1: YES; 0: NO) | 58.08% | 28.26% | – | 5.03 | 12.88 µM | 4.89 | – | – | – | – | – |
| CC1CN(Cc2ccc(-c3ccc(-c4nc5ccccc5[nH]4)cc3)cc2)CC(C)O1.O=C(O)C(F)(F)F (stereo not drawn) [TCMDC-133828] | 5.94 | 1 (key: 1: YES; 0: NO) | 97.54% | 72.23% | 6.06 | 6.06 | 30.20 µM | 4.52 | – | – | – | – | – |
| CC1CN(Cc2ccc(-c3ccc(-c4nc5cc(F)ccc5[nH]4)cc3)cc2)CC(C)O1.O=C(O)C(F)(F)F (stereo not drawn) [TCMDC-133831] | 5.91 | 1 (key: 1: YES; 0: NO) | 81.24% | 52.13% | – | 5.93 | 24.55 µM | 4.61 | – | – | – | – | – |
| N#Cc1ccc(CN2CCC(Oc3ccc(NC(=O)c4cccs4)cc3Cl)CC2)cc1.O=C(O)C(F)(F)F [TCMDC-133955] | 6.22 | 0 (key: 1: YES; 0: NO) | 56.20% | 46.08% | 5.36 | 5.36 | 36.31 µM | 4.44 | – | – | – | – | – |
| CC(C)CCN1CCC(Oc2ccc(NC(=O)c3cccs3)cc2Cl)CC1.O=C(O)C(F)(F)F [TCMDC-133974] | 6.18 | 1 (key: 1: YES; 0: NO) | 38.26% | 57.89% | 5.84 | 5.84 | 21.38 µM | 4.67 | – | – | – | – | – |
| CNC(=O)c1cc(F)c(F)cc1Nc1nc(Nc2cccc(CS(C)(=O)=O)c2)ncc1Cl.O=CO [TCMDC-134060] | 5.80 | 1 (key: 1: YES; 0: NO) | 53.04% | 41.11% | 5.67 | 5.67 | 100.00 µM | 4.00 | – | – | – | – | – |
| CN1CCN(c2ccc(Nc3ncc(C#N)c(Nc4ccccc4C(N)=O)n3)cc2)CC1.Cl [TCMDC-134116] | 7.55 | 1 (key: 1: YES; 0: NO) | 134.36% | 120.59% | 7.50 | 7.49 | 2.43 µM | 5.61 | – | – | – | – | – |
| COc1ccc(Nc2ncc(C#N)c(Nc3ccccc3C(N)=O)n2)cc1N1CCN(C)CC1.Cl [TCMDC-134117] | 7.20 | 1 (key: 1: YES; 0: NO) | 92.85% | 98.42% | 7.59 | 7.59 | 8.32 µM | 5.08 | – | – | – | – | – |
| CNC(=O)c1ccccc1Nc1nc(Nc2ccc(N3CCOCC3)cc2)ncc1Cl.Cl [TCMDC-134144] | 5.70 | 0 (key: 1: YES; 0: NO) | 67.63% | 105.55% | 6.41 | 6.41 | 3.63 µM | 5.44 | – | – | – | – | – |
| COc1ccc(Nc2ncc(OC)c(Nc3ccccc3C(N)=O)n2)cc1N1CCN(C)CC1.O=CO [TCMDC-134149] | 6.07 | 1 (key: 1: YES; 0: NO) | 85.24% | 71.46% | – | 6.57 | 13.49 µM | 4.87 | – | – | – | – | – |
| NCC(NC(=O)c1ccc(-c2c[nH]c3ncccc23)s1)c1ccccc1.O=CO (stereo not drawn) [TCMDC-134154] | 6.25 | – | 101.79% | 81.42% | – | 6.02 | – | 4.79 | 1 (1: YES) | 6.02 | 16.22 µM | – | – |
| COc1ccc(Nc2ncc(Cl)c(Nc3cccnc3C(N)=O)n2)cc1N1CCN(C)CC1.Cl [TCMDC-134163] | 6.77 | 1 (key: 1: YES; 0: NO) | 91.07% | 92.91% | – | 6.42 | 11.22 µM | 4.95 | – | – | – | – | – |
| CN1CCN(c2ccc(Nc3ncc(Cl)c(Nc4cccnc4C(N)=O)n3)cc2)CC1.Cl [TCMDC-134164] | 7.08 | 1 (key: 1: YES; 0: NO) | 96.98% | 90.60% | 6.64 | 6.65 | 4.62 µM | 5.34 | – | – | – | – | – |
| CS(=O)(=O)Cc1ccc(Nc2ncc(Cl)c(Nc3cccnc3C(N)=O)n2)cc1.Cl [TCMDC-134165] | 6.01 | 1 (key: 1: YES; 0: NO) | 41.15% | 108.98% | 6.15 | 6.16 | 100.00 µM | 4.00 | – | – | – | – | – |
| CS(=O)(=O)Cc1cccc(Nc2ncc(Cl)c(Nc3cccnc3C(N)=O)n2)c1.Cl [TCMDC-134166] | 6.56 | 0 (key: 1: YES; 0: NO) | 102.49% | 90.53% | 5.92 | 5.92 | 4.79 µM | 5.32 | – | – | – | – | – |
| NC(=O)c1ccccc1Nc1nc(Nc2cc[nH]n2)ncc1Cl [TCMDC-134169] | 5.64 | 1 (key: 1: YES; 0: NO) | 78.38% | 61.96% | 6.29 | 6.29 | 13.18 µM | 4.88 | – | – | – | – | – |
| COc1cc(NC2=NS(=O)(=O)c3cc(Cl)ccc3N2C)cc(OC)c1OC.O=C(O)C(F)(F)F [TCMDC-134208] | 6.84 | – | 117.05% | 98.94% | – | 5.87 | – | 4.00 | 1 (1: YES) | 5.87 | 100.00 µM | – | – |
| CC(C#N)Cc1ccc(-c2cnc(N)c3cc(-c4ccnc(N)n4)ccc23)cc1 (stereo not drawn) [TCMDC-134547] | 5.86 | – | 69.67% | 52.16% | – | 6.07 | – | 5.24 | 0 (0: NO) | 6.07 | 5.75 µM | – | – |
| COc1ccc2nccc(N3CCC(NCCNCc4ccc5c(n4)NC(=O)CO5)C3)c2n1.Cl (stereo not drawn) [TCMDC-134548] | 8.85 | – | 4.96% | 51.82% | – | 5.79 | – | 4.37 | 1 (1: YES) | 5.79 | 42.66 µM | – | – |
| COCCN(C)c1ccc(C(=O)Nc2ccccc2)cc1NS(=O)(=O)Cc1ccccc1.O=C(O)C(F)(F)F [TCMDC-134575] | 6.22 | – | 51.04% | 48.31% | – | 5.85 | – | 4.00 | 1 (1: YES) | – | 100.00 µM | – | – |
| COc1ccc2ncc(C)c(CCN3CCC(NCc4ccc5c(n4)NC(=O)CS5)CC3)c2c1.Cl [TCMDC-134648] | 6.06 | – | 66.89% | 104.06% | – | 5.59 | – | 4.46 | 1 (1: YES) | 5.59 | – | 34.67 µM | 34.67 µM |
| COc1ccc2ncc(Cl)c(NCC3(O)CCC(NCc4ccc5c(n4)NC(=O)CS5)CC3)c2n1.Cl (stereo not drawn) [TCMDC-134671] | 5.92 | – | 92.69% | 100.49% | – | 6.09 | – | 4.90 | 1 (1: YES) | 6.09 | – | 12.59 µM | 12.59 µM |
| Cc1[nH]c(C)c(-c2ccc(C#Cc3ccc(F)cc3F)cc2)c(=O)c1Br [TCMDC-134692] | 7.80 | 1 (key: 1: YES; 0: NO) | 89.67% | 88.19% | 6.40 | 6.40 | 100.00 µM | 4.00 | – | – | – | – | – |
